Measurements taken from patent publication US10716770B2, “Nicotinic receptor non-competitive antagonists” (Catalyst Biosciences, Inc., priority 2010, dated 2020).
Where two headings read alike, the source gives them in different places.

How the values were obtained:
[1] = target: T1, human α4β2 (Homo sapiens, UniProt P17787+P43681); assay: Competition binding to human α4β2 nicotinic receptors in membrane preparations ([3H]-nicotine); conditions: [3H]-nicotine competition, membranes
T1 construct: host or cells: SH-EP1

[2] = target: T1, human α4β2; assay: Calcium flux functional assay, inhibition of nicotine response in SH-EP1-human α4β2 cells; format: cell-based; conditions: nicotine 1 μM
Procedure: (§1) SH-EP1-human α4β2 (Eaton et al., 2003), SH-EP1-human α4β4 (Gentry et al., 2003) and SH-EP1-α6β3β4α5 (Grinevich at al., 2005) cell lines were obtained from Dr. Ron Lukas (Barrow Neurological Institute). The SH-EP1 cell lines, PC12, SH-SY5Y and TE671/RD cells were maintained in proliferative growth phase in Dulbecco's modified Eagle's medium (Invitrogen, Carlsbad, Calif.) with 10% horse serum (Invitrogen), 5% fetal bovine serum (HyClone, Logan Utah), 1 mM sodium pyruvate, 4 mM L-glutamine. For maintenance of stable transfectants, the α4β2 and α4β4 cell media was supplemented with 0.25 mg/mL zeocin and 0.13 mg/mL hygromycin B. Selection was maintained for the α6β3β4α5 cells with 0.25 mg/mL of zeocin, 0.13 mg/mL of hygromycin B, 0.4 mg/mL of geneticin, and 0.2 mg/mL of blasticidin.
(§2) Twenty-four to forty-eight hours prior to each experiment, cells were plated in 96 well black-walled, clear bottom plates (Corning, Corning, N.Y.) at 60-100,000 cells/well. On the day of the experiment, growth medium was gently removed, 200 μL 1×FLIPR Calcium 4 Assay reagent (Molecular Devices, Sunnyvale, Calif.) in assay buffer (20 mM HEPES, 7 mM TRIS base, 4 mM CaCl2, 5 mM D-glucose, 0.8 mM MgSO4, 5 mM KCl, 0.8 mM MgCl2, 120 mM N-methyl D-glucamine, 20 mM NaCl, pH 7.4 for SH-EP1-human α4β2 cells or 10 mM HEPES, 2.5 mM CaCl2, 5.6 mM D-glucose, 0.8 mM MgSO4, 5.3 mM KCl, 138 mM NaCl, pH 7.4 with TRIS-base for all other cell lines) was added to each well and plates were incubated at 37° C. for 1 hour (29° C. for the 29° C.-treated SH-EP1-human α4β2 cells). For inhibition studies, competitor compound (10 pM-10 μM) was added at the time of dye addition. The plates were removed from the incubator and allowed to equilibrate to room temperature. Plates were transferred to a FLIPR Tetra fluorometric imaging plate reader (Molecular Devices) for addition of compound and monitoring of fluorescence (excitation 485 nm, emission 525 nm). The amount of calcium flux was compared to both a positive (nicotine) and negative control (buffer alone). The positive control was defined as 100% response and the results of the test compounds were expressed as a percentage of the positive control. For inhibition studies, the agonist nicotine was used at concentrations of 1 μM for SH-EP1-human α4β2 and SH-EP1-human α4β4 cells, 10 μM for PC12 and SH-SY5Y cells, and 100 μM for TE671/RD cells.

[3] = target: T2, Human Ganglion (Homo sapiens, UniProt P30926+P32297); assay: Calcium flux functional assay, inhibition of nicotine response at human ganglionic receptor subtype; format: cell-based; conditions: read-out: Human Ganglion Ca Flux Imax
T2 construct: Human Ganglion Ca Flux IC50; Human Ganglion Ca Flux Imax
Procedure: as §1, §2

[4] = 29C/HS (29° C.-treated SH-EP1-human α4β2 cells), read-out: Human α4β2 Ca Flux IC50 [29C/HS]
[5] = 29C/HS (29° C.-treated SH-EP1-human α4β2 cells), read-out: Human α4β2 Ca Flux Imax [29C/HS]
[6] = 37C/LS, read-out: Human α4β2 Ca Flux IC50 [37C/LS]
[7] = 37C/LS, read-out: Human α4β2 Ca Flux Imax [37C/LS]
[8] = 29C/HS (29° C.-treated SH-EP1-human α4β2 cells)

Structure (SMILES) | Ki ([1]; read-out: Human α4β2 Ki) [nM] | IC50 [2, 4] [nM] | Emax [2, 5] [%] | IC50 [2, 6] [nM] | Emax [2, 7] [%] | Emax [3] [%] | Human α4β2 Ca Flux Imax [29C/HS] [2, 8] [% inh] | Human α4β2 Ca Flux Imax [37C/LS] ([2]; 37C/LS) [% inh] | Ki ([1]; Human α4β2 Ki) [nM] | IC50 ([2]; Human α4β2 Ca Flux IC50 [37C/LS], 37C/LS) [nM]
CNC1(C)C2CCC(C2)C12CCCC2 (stereo not drawn) | > 10000 | 1100 | 99 | 120 | 100 | 96 |  |  |  | 
CNC1C2(CCC2)[C@@H]2CC[C@@]1(C)C2(C)C (stereo partly drawn) [drawing 34] | > 10000 | 310 |  | 270 |  |  | 97 | 93 |  | 
CNC1C2CCC(C2)C12CC2 (stereo not drawn) |  | 2100 | 97 | 570 | 93 | 93 |  |  | 540 | 
CNC1(C)C2CCC(C2)C12CC2 (stereo not drawn) | > 10000 | 380 | 97 | 120 | 93 | 98 |  |  |  | 
CN(C)C1C2(CCC2)[C@H]2CC[C@]1(C)C2(C)C (stereo partly drawn) [drawing 36] | > 10000 | 140 |  | 350 |  |  | 96 | 95 |  | 
CN(C)C1C2(CCC2)[C@@H]2CC[C@@]1(C)C2(C)C (stereo partly drawn) [drawing 37] | 3200 | 1100 | 96 | 280 | 95 | 95 |  |  |  | 
CN[C@@]1(C)[C@@H]2CC[C@@H](C2)C12CCC2 (single isomer, unassigned) [drawing 29] | > 10000 |  |  |  |  |  | 98 | 96 |  | 
CNC1C2(CCC2)[C@H]2CC[C@]1(C)C2(C)C (stereo partly drawn) [drawing 32] | 5600 | 710 |  | 430 |  |  | 98 | 96 |  | 
CN(C)C1C2(CCC2)[C@@H]2CC[C@@]1(C)C2(C)C (stereo partly drawn) [drawing 38] | 2600 | 740 |  | 380 |  |  | 95 | 95 |  | 
CNC1C2CCC(C2)C12CCC2 (stereo not drawn) |  | 1000 | 99 | 500 | 97 | 97 |  |  | > 10000 | 
CN(C)C1C2(CCC2)[C@H]2CC[C@]1(C)C2(C)C (stereo partly drawn) [drawing 35] | > 10000 | 540 | 96 | 520 | 97 | 98 |  |  |  | 
CNC1(C)C2CCC(CC2)C12CCCC2 (stereo not drawn) | 300 |  |  | 400 | 95 | 92 |  |  |  | 
CN[C@@]1(C)[C@@H]2CC[C@@H](C2)C12CCC2 (single isomer, unassigned) [drawing 30] | > 10000 |  |  |  |  |  | 98 | 94 |  | 
CNC1C2(CCC2)[C@@H]2CC[C@@]1(C)C2(C)C (stereo partly drawn) [drawing 33] | > 10000 | 1000 | 97 | 600 | 95 | 95 |  |  |  | 
CNC1C2(CCC2)[C@H]2CC[C@]1(C)C2(C)C (stereo partly drawn) [drawing 31] | > 10000 | 1300 | 99 | 498 | 96 | 97 |  |  |  | 
C1CN(C2C3CCC(C3)C23CCC3)C1 (stereo not drawn) |  | 1400 | 96 | 740 | 98 | 89 |  |  |  | 
C1CCN(C2C3CCC(C3)C23CCC3)C1 (stereo not drawn) | 3800 | 1400 | 90 |  | 96 | 79 |  |  |  | 59
CN[C@@]1(C)[C@@H]2CC[C@@H](C2)C12CCC2 (racemic) | 8700 |  | 98 |  | 95 | 93 |  |  |  | 
CN(C)C1C2CCC(C2)C12CCC2 (stereo not drawn) | 2600 | 1800 | 98 | 620 | 98 | 98 |  |  |  | 
